Reference: patent US12398154B2, “Azaquinazoline pan-KRas inhibitors” (Mirati Therapeutics, Inc., priority 2020, dated 2025)

Columns and labels:
Test in all cases: biochemical
[1] = target: KRas G12R (Homo sapiens, UniProt P01116, G12R);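 note: TR-FRET displacement assay of compound binding to KRas, read after one hour at room temperature, potency from a four-parameter fit of percent-of-control values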
Experimental: (§1) The ability of a compound to bind to KRas was measured using a TR-FRET displacement assay. […] After a 60-minute incubation at room temperature, the reaction was measured using a BMG LABTECH CLARIO star Plus via TR-FRET. […] The POC values were fit to a 4-parameter IC50 equation and the IC50 value reported.

[2] = target: KRas G12V (Homo sapiens, UniProt P01116, G12V);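 note: KRas binding measured by TR-FRET displacement at room temperature, IC50 fitted from percent of control values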
Experimental: as §1

[3] = target: KRas G12C (Homo sapiens, UniProt P01116, G12C);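 note: binding to KRas assessed by TR-FRET displacement after one hour incubation at room temperature, potency fitted from percent-of-control values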
Experimental: as §1

[4] = target: KRas G12D (Homo sapiens, UniProt P01116, G12D);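 note: TR-FRET displacement binding assay on KRas, read after a one-hour incubation at room temperature, IC50 fitted from percent-of-control values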
Experimental: as §1

[5] = target: KRas WT (Homo sapiens, UniProt P01116);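 note: binding to KRas read as TR-FRET displacement after a one-hour room-temperature incubation, IC50 derived from percent-of-control values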
Chain of KRas WT (P01116 1-169 isoform P01116-2): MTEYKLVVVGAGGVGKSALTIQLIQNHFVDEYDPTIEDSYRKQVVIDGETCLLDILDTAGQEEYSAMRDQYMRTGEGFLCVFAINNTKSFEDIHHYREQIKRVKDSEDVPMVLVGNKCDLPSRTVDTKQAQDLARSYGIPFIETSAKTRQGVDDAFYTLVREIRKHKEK
Experimental: as §1

Chain of KRas G12C (P01116 1-169 isoform P01116-2 G12C): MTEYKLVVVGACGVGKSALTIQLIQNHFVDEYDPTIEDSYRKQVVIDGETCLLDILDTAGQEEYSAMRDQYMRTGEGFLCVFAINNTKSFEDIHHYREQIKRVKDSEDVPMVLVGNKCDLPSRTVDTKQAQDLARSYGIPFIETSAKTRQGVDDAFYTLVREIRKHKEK
Chain of KRas G12D (P01116 1-169 isoform P01116-2 G12D): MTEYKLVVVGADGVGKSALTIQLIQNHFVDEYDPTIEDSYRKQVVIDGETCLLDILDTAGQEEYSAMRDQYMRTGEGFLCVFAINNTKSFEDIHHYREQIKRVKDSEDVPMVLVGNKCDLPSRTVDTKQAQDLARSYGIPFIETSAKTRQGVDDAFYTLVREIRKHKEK
Chain of KRas G12R (P01116 1-169 isoform P01116-2 G12R): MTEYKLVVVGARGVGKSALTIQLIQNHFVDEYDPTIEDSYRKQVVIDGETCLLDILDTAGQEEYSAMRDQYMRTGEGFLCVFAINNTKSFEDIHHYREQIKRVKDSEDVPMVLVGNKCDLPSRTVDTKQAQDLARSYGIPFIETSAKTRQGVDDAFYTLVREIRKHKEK
Chain of KRas G12V (P01116 1-169 isoform P01116-2 G12V): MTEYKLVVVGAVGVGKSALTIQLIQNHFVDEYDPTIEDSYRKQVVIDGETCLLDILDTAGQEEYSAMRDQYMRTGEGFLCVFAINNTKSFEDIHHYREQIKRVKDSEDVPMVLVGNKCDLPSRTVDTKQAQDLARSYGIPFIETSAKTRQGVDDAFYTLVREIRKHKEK

| Compound | IC50 [1] | IC50 [2] | IC50 [3] | IC50 [4] | IC50 [5] |
| --- | --- | --- | --- | --- | --- |
| CC1CCCN(c2nc(OCC34CCCN3CCC4)nc3c(F)c(-c4cccc5cccc(F)c45)ncc23)C1 (stereo not drawn) [Example 22, 8-fluoro-7-(8-fluoronaphthalen-1-yl)-2-((hexahydro-1H-pyrrolizin-7a-yl)methoxy)-4-(3-methylpiperidin-1-yl)pyrido[4,3-d]pyrimidine] | 14.9 µM | 12.1 µM | 62.1 µM | 9.97 µM | – |
| OC1CCCN(c2nc(OCC34CCCN3CCC4)nc3c(F)c(-c4cccc5cccc(F)c45)ncc23)C1 (stereo not drawn) [Example 23, 1-(8-fluoro-7-(8-fluoronaphthalen-1-yl)-2-((hexahydro-1H-pyrrolizin-7a-yl)methoxy)pyrido[4,3-d]pyrimidin-4-yl)piperidin-3-ol] | 6.18 µM | 4.3 µM | 4.74 µM | 5.27 µM | – |
| C#Cc1cccc2cccc(-c3ncc4c(N5CCCC(C)(O)C5)nc(OCC56CCCN5CCC6)nc4c3F)c12 (stereo not drawn) [Example 55] | 0.41 µM | 0.212 µM | 0.295 µM | 0.139 µM | – |
| CC1(O)CCCCN(c2nc(OCC34CCCN3CCC4)nc3c(F)c(-c4cccc5cccc(F)c45)ncc23)C1 (stereo not drawn) [Example 65, 1-(8-fluoro-7-(8-fluoronaphthalen-1-yl)-2-((hexahydro-1H-pyrrolizin-7a-yl)methoxy)pyrido[4,3-d]pyrimidin-4-yl)-3-methylazepan-3-ol] | 45.1 µM | 15 µM | 21 µM | 14.1 µM | – |
| CC1(O)CCCN(c2nc(OCC34CCCN3CCC4)nc3c(F)c(-c4cccc5sc(N)nc45)ncc23)C1 (stereo not drawn) [Example 67, 1-(7-(2-aminobenzo[d]thiazol-4-yl)-8-fluoro-2-((hexahydro-1H-pyrrolizin-7a-yl)methoxy)pyrido[4,3-d]pyrimidin-4-yl)-3-methylpiperidin-3-ol] | 16.1 µM | 11.5 µM | 14.2 µM | 10.4 µM | – |
| Fc1c(-c2cccc3cccc(F)c23)ncc2c(N3CC(n4ccnc4)C3)nc(OCC34CCCN3CCC4)nc12 [Example 75, 4-(3-(1H-imidazol-1-yl)azetidin-1-yl)-8-fluoro-7-(8-fluoronaphthalen-1-yl)-2-((hexahydro-1H-pyrrolizin-7a-yl)methoxy)pyrido[4,3-d]pyrimidine] | 0.977 µM | 2.39 µM | 1.83 µM | 63.1 µM | – |
| O=C1NC2(CCCN(c3nc(OCC45CCCN4CCC5)nc4c(F)c(-c5cccc6cccc(F)c56)ncc34)C2)CO1 (stereo not drawn) [Example 227, 7-(8-fluoro-7-(8-fluoronaphthalen-1-yl)-2-((hexahydro-1H-pyrrolizin-7a-yl)methoxy)pyrido[4,3-d]pyrimidin-4-yl)-3-oxa-1,7-diazaspiro[4.5]decan-2-one] | 3.06 µM | 2.43 µM | 2.72 µM | 1.24 µM | 3.39 µM |
| CC(Nc1nc(OCC23CCCN2CCC3)nc2c(F)c(-c3cccc4cccc(F)c34)ncc12)c1c[nH]c2ncccc12 (stereo not drawn) [Example 229, N-(1-(1H-pyrrolo[2,3-b]pyridin-3-yl)ethyl)-8-fluoro-7-(8-fluoronaphthalen-1-yl)-2-((tetrahydro-1H-pyrrolizin-7a(5H)-yl)methoxy)pyrido[4,3-d]pyrimidin-4-amine] | 2.12 µM | 3.12 µM | 4.72 µM | 85.3 µM | 36.8 µM |
| Fc1c(-c2cccc3cccc(F)c23)ncc2c(N3CCCC4(CSC4)C3)nc(OCC34CCCN3CCC4)nc12 [Example 262, 6-(8-fluoro-7-(8-fluoronaphthalen-1-yl)-2-((hexahydro-1H-pyrrolizin-7a-yl)methoxy)pyrido[4,3-d]pyrimidin-4-yl)-2-thia-6-azaspiro[3.5]nonane] | 1.66 µM | 1.79 µM | – | 0.96 µM | 1.53 µM |
| CS(=O)(=O)C1COCCN(c2nc(OCC34CCCN3CCC4)nc3c(F)c(-c4cccc5cccc(F)c45)ncc23)C1 (stereo not drawn) [Example 271, 4-(8-fluoro-7-(8-fluoronaphthalen-1-yl)-2-((hexahydro-1H-pyrrolizin-7a-yl)methoxy)pyrido[4,3-d]pyrimidin-4-yl)-6-(methylsulfonyl)-1,4-oxazepane] | 7.69 µM | 2.44 µM | – | 2.43 µM | 3 µM |
| NC(=O)[C@H]1CCCN(c2nc(OCC34CCCN3CCC4)nc3c(F)c(-c4cccc5cccc(F)c45)ncc23)C1 [Example 273, (S)-1-(8-fluoro-7-(8-fluoronaphthalen-1-yl)-2-((hexahydro-1H-pyrrolizin-7a-yl)methoxy)pyrido[4,3-d]pyrimidin-4-yl)piperidine-3-carboxamide] | 5.2 µM | 2.31 µM | – | 5.15 µM | 3.07 µM |
| CN(C)C(=O)n1cc2c(n1)CCCN(c1nc(OCC34CCCN3CCC4)nc3c(F)c(-c4cccc5cccc(F)c45)ncc13)C2 [Example 274, 5-(8-fluoro-7-(8-fluoronaphthalen-1-yl)-2-((hexahydro-1H-pyrrolizin-7a-yl)methoxy)pyrido[4,3-d]pyrimidin-4-yl)-N,N-dimethyl-5,6,7,8-tetrahydropyrazolo[4,3-c]azepine-2(4H)-carboxamide] | 2.76 µM | 0.867 µM | – | 0.375 µM | 14.7 µM |
| CC(=O)Nc1cc2n(n1)CCCN(c1nc(OCC34CCCN3CCC4)nc3c(F)c(-c4cccc5cccc(F)c45)ncc13)C2 [Example 275, N-(5-(8-fluoro-7-(8-fluoronaphthalen-1-yl)-2-((hexahydro-1H-pyrrolizin-7a-yl)methoxy)pyrido[4,3-d]pyrimidin-4-yl)-5,6,7,8-tetrahydro-4H-pyrazolo[1,5-a][1,4]diazepin-2-yl)acetamide] | 7.16 µM | 9.05 µM | – | 1.66 µM | 24.3 µM |
| O=C(c1cc2n(n1)CCCN(c1nc(OCC34CCCN3CCC4)nc3c(F)c(-c4cccc5cccc(F)c45)ncc13)C2)N1CCOCC1 [Example 276, (5-(8-fluoro-7-(8-fluoronaphthalen-1-yl)-2-((hexahydro-1H-pyrrolizin-7a-yl)methoxy)pyrido[4,3-d]pyrimidin-4-yl)-5,6,7,8-tetrahydro-4H-pyrazolo[1,5-a][1,4]diazepin-2-yl)(morpholino)methanone] | 1.21 µM | 0.303 µM | – | 0.212 µM | 3.22 µM |
| O=C(c1cc2n(n1)CCCN(c1nc(OCC34CCCN3CCC4)nc3c(F)c(-c4cccc5cccc(F)c45)ncc13)C2)N1CCC1 [Example 277, azetidin-1-yl(5-(8-fluoro-7-(8-fluoronaphthalen-1-yl)-2-((hexahydro-1H-pyrrolizin-7a-yl)methoxy)pyrido[4,3-d]pyrimidin-4-yl)-5,6,7,8-tetrahydro-4H-pyrazolo[1,5-a][1,4]diazepin-2-yl)methanone] | 4.91 µM | 1.8 µM | – | 0.765 µM | 5.29 µM |
| Cc1c(N)nn2c1CN(c1nc(OCC34CCCN3CCC4)nc3c(F)c(-c4cccc5cccc(F)c45)ncc13)CCC2 [Example 278, 5-(8-fluoro-7-(8-fluoronaphthalen-1-yl)-2-((hexahydro-1H-pyrrolizin-7a-yl)methoxy)pyrido[4,3-d]pyrimidin-4-yl)-3-methyl-5,6,7,8-tetrahydro-4H-pyrazolo[1,5-a][1,4]diazepin-2-amine] | 1.86 µM | 1.99 µM | – | 0.801 µM | 3.67 µM |
| CC1(O)CCCN(c2nc(OCC34CCCN3CCC4)nc3c(F)c(-c4cc(O)ccc4F)ncc23)C1 (stereo not drawn) [Example 429, 1-(8-fluoro-7-(2-fluoro-5-hydroxyphenyl)-2-((tetrahydro-1H-pyrrolizin-7a(5H)-yl)methoxy)pyrido[4,3-d]pyrimidin-4-yl)-3-methylpiperidin-3-ol] | 8.25 µM | 4.44 µM | – | 2.46 µM | – |
| O=C1CC2(CCCN(c3nc(OCC45CCCN4CCC5)nc4c(F)c(-c5cccc6cccc(CO)c56)ncc34)C2)N1 (stereo not drawn) [Example 433, 6-(8-fluoro-2-((hexahydro-1H-pyrrolizin-7a-yl)methoxy)-7-(8-(hydroxymethyl)naphthalen-1-yl)pyrido[4,3-d]pyrimidin-4-yl)-1,6-diazaspiro[3.5]nonan-2-one] | 15.4 µM | 10 µM | – | 8.78 µM | – |
| N#Cc1cccc2cccc(-c3ncc4c(N5CCCC(c6nc[nH]n6)C5)nc(OCC56CCCN5CCC6)nc4c3F)c12 (stereo not drawn) [Example 456, 8-(4-(3-(1H-1,2,4-triazol-3-yl)piperidin-1-yl)-8-fluoro-2-((hexahydro-1H-pyrrolizin-7a-yl)methoxy)pyrido[4,3-d]pyrimidin-7-yl)-1-naphthonitrile] | 6.37 µM | 10.7 µM | – | 48.8 µM | – |
| NS(=O)(=O)CC1CCCN(c2nc(OCC34CCCN3CCC4)nc3c(F)c(-c4cccc5cccc(C(F)(F)F)c45)ncc23)C1 (stereo not drawn) [Example 465, 1-(1-(8-fluoro-2-((hexahydro-1H-pyrrolizin-7a-yl)methoxy)-7-(8-(trifluoromethyl)naphthalen-1-yl)pyrido[4,3-d]pyrimidin-4-yl)piperidin-3-yl)methanesulfonamide] | 10.1 µM | 6.1 µM | – | 15.6 µM | – |
| CCc1c(F)ccc2cc(O)cc(-c3ncc4c(N5CCN6C(C5)C(=O)NC6(C)C)nc(OC[C@@]56CCCN5C[C@H](F)C6)nc4c3F)c12 (stereo partly drawn) [Example 489, 7-(7-(8-ethyl-7-fluoro-3-hydroxynaphthalen-1-yl)-8-fluoro-2-(((2R,7aS)-2-fluorohexahydro-1H-pyrrolizin-7a-yl)methoxy)pyrido[4,3-d]pyrimidin-4-yl)-3,3-dimethylhexahydroimidazo[1,5-a]pyrazin-1(5H)-one] | 0.31 µM | 0.151 µM | – | 0.221 µM | – |
